Test results taken from PMC8398393, “Synthesis and Biological Evaluation of Amidinourea Derivatives against Herpes Simplex Viruses” (Molecules, 2021).

Legend:
[1] = Cytotoxicity assay (MTT) in Vero cells; format: cell-based; conditions: African green monkey, Vero cells (African green monkey kidney cells), compound concentration that produces 50% of cytotoxicity
Experimental: We then investigated whether the new amidinourea derivatives 5a–k could affect HSV-1 and HSV-2 replication. We first assessed cell cytotoxicity of the compounds in African green monkey kidney cells (Vero) to rule out the possibility that antiviral activity was related to the cytotoxic effects of the drug (Table 1). Vero cells were seeded at a density of 3 × 10^4/well in a 96-well culture plate. After 24 h, the cells were treated with different dilutions of drugs, or mock-treated using the same amount of vehicle solution (DMSO). Forty-eight hours after treatment, cell viability was determined using a standard 3-(4,5-dimethylthiazol-2-yl)-2,5-diphenyltetrazolium bromide (MTT) assay. The compounds were considered non-toxic only if they maintained at least 70% cell viability after 48 h of treatment.
To determine the cytotoxicity of amidinourea derivatives, Vero cells were seeded in a 96-well culture plate and exposed to increasing concentrations of either compounds or vehicle (DMSO) the following day. After 48 h of incubation, the number of viable cells was determined using the 3-(4,5-dimethylthiazol-2-yl)-2,5-diphenyltetrazolium bromide (MTT) (Sigma-Aldrich, Milan, Italy) assay, as previously described.
(§1) Data were presented as the mean value and standard error of the mean (SEM). Data were analyzed by means of GraphPad Prism 5 software (GraphPad Software, Inc., La Jolla, CA, USA). Statistical analysis was performed using one-way ANOVA with Bonferroni’s post-test; p < 0.05 was considered statistically significant. The IC50 e CC50 values were calculated using the online tool Quest Graph™ IC50 Calculator, AAT Bioquest, Inc., Sunnyvale, CA, USA, https://www.aatbio.com/tools/ic50-calculator (accessed on 4 May 2021).

HSV-1 = experiment: Virus yield reduction assay (plaque titration) HSV-1; format: cell-based, Herpes simplex virus type 1 (clinical isolate) in Vero cells; conditions: for IC50: Human alphaherpesvirus 1, HSV-1, Vero cells, MOI 0.1, 2 h pre-treatment, 48 h, plaque assay, read-out: IC50 values (compound concentration required to inhibit 50% of viral infectivity); for antiviral activity against HSV-1 (in words): virus yield reduction, Vero cells, MOI 0.1, 48 h, 100 µM (50 µM for 5f and 5k)
Experimental: (§2) Vero cells were seeded at a density of 3 × 10^5/well in a 24-well culture plate. Twenty-four hours later, the cells were pre-treated with the different drugs for 2 h at 37 °C, and then infected in duplicate with HSV-1 or HSV-2 at an MOI of 0.1, in the presence of the compounds; following virus adsorption, the viral inoculum was removed and cultures were exposed to the compounds for 48 h. The extent of HSV-1 and HSV-2 replication was then assessed by titrating the infectivity of supernatants and cell-associated viruses using a standard plaque assay in Vero cells. Plaques were microscopically counted, and the mean plaque counts for each drug concentration were expressed as plaque-forming units per milliliter (PFU/mL) (Figure 3).
(§3) The African green monkey kidney cells (Vero, ATCC CCL-81™) were cultured in Dulbecco’s Modified Eagle’s Medium, supplemented with 10% heat inactivated fetal bovine serum (FBS), 2 mM glutamine, 1 mM sodium pyruvate, 100 U/mL penicillin and 100 µg/mL streptomycin sulfate (Sigma-Aldrich, Milan, Italy). Clinical isolates of HSV-1 and HSV-2 were a generous gift from Valeria Ghisetti, Amedeo di Savoia Hospital, Turin, Italy. They were propagated and titrated by plaque assay on Vero cells, as previously described.
(§4) Vero cells were seeded in 24-well plates and pre-treated, after 24 h, with different concentrations of the amidinourea derivatives or the vehicle control (DMSO) for 2 h at 37 °C. They were then infected with HSV at MOI of 0.1 PFU/cell in the presence of the compounds. Following virus adsorption (2 h at 37 °C), the viral inoculum was removed, and the cultures were maintained in a medium that contained the corresponding molecule for 48 h. The cells and supernatants were then harvested and disrupted using three freeze (liquid nitrogen)/thaw (37 °C) cycles. The extent of virus replication was subsequently assessed by titrating the infectivity of the supernatants of the cell suspensions in Vero cells, as previously described. Plaques were microscopically counted, and the mean plaque counts for each drug concentration were expressed as PFU/mL.
as §1
(§5) Figure 3 Antiviral activity of 5a–k against HSV-1 and HSV-2. Upper panel. Virus yield reduction assay. Vero cells were treated as described in the manuscript with the indicated compounds. The extent of (A) HSV-1 and (B) HSV-2 replication was then assessed by titrating the infectivity of supernatants and cell-associated viruses using a standard plaque assay in Vero cells. Plaques were microscopically counted, and the mean plaque counts for each molecule were expressed as PFU/mL. Mean ± SEM is shown (***, p < 0.001, one-way ANOVA followed by Bonferroni’s post-tests). Lower panel. Representative light microscopy images of Vero cells infected with (A) HSV-1 or (B) HSV-2 and treated with the indicated compounds, as described for virus yield reduction assay. Original magnification: 20×.
Figure 4 (A) Vero cells were infected with HSV-1 and, where indicated, the cells were treated with increasing concentrations of the indicated compounds, before and during virus adsorption. These remained in the culture media throughout the experiment. The extent of HSV-1 replication was then assessed by titrating the infectivity of supernatants and cell-associated viruses—obtained from freeze (liquid nitrogen)/thaw (37 °C) cycles—and combined using a standard plaque assay. […]

HSV-2 = experiment: Virus yield reduction assay (plaque titration) HSV-2; format: cell-based, Herpes simplex virus type 2 (clinical isolate) in Vero cells; conditions: Vero cells, MOI 0.1, 48 h, 100 µM (50 µM for 5f and 5k)
Experimental: as §2, §3, §4
as §5, with “Representative light microscopy images of Vero cells infected with (A) HSV-1 or (B) HSV-2 and treated with the indicated compounds, as described for virus yield reduction assay. Original magnification: 20×.” left out

ICP27 and gD (HSV-1) = experiment: Western blot of viral gene expression in HSV-1-infected Vero cells; format: cell-based, HSV-1 in Vero cells; conditions: MOI 0.3, various times post infection, immunoblotting
Experimental: (§6) Finally, to identify the phase of HSV replication program that is affected by amidinourea derivatives, the effects of 5i compound on viral gene expression was investigated in HSV-1 and HSV-2-infected cells. To this end, the total protein cell extracts were prepared from HSV-infected Vero cells treated with 5i, or vehicle control, for various lengths of time post infection. The expression patterns of ICP27, for HSV-1, ICP8, for HSV-2, gD, for HSV-1 and HSV-2, were then examined via immunoblotting with specific antibodies and were used as a reflection of the levels of immediate-early/early (ICP27, ICP8) and late (gD) viral products, respectively. […] However, the precise mechanism exploited by amidinourea derivatives to carry out their antiviral activity against HSV still deserves to be elucidated and is beyond the goals of the present communication.
(§7) After treatment, the cells were washed with phosphate-buffered saline (PBS), and cell lysis was carried out using radioimmunoprecipitation assay (RIPA) buffer to obtain total cell lysate. […]
(§8) Figure 5 Vero cells were mock infected or infected with HSV-1 (A) or HSV-2 (B) at an MOI of 0.3. Protein levels of ICP27 (HSV-1), ICP8 (HSV-2) and gD (HSV-1/2) were assessed at different times post infection (hpi) by Western blotting (upper panels). […]

ICP8 and gD (HSV-2) = experiment: Western blot of viral gene expression in HSV-2-infected Vero cells; format: cell-based, HSV-2 in Vero cells; conditions: MOI 0.3, various times post infection, immunoblotting
Experimental: as §6, §7, §8

SMILES | CC50 at 48 h [1] [µM] | antiviral activity against HSV-1 (in words) (HSV-1) | antiviral activity against HSV-2 (in words) (HSV-2) | other results
Cc1ccc(CNC(=O)NC(=N)Nc2ccc(Cl)cc2)cc1 [Compound 5c] | 184 | – | – | –
N=C(NC(=O)NCCNc1ccccc1)Nc1ccc(Cl)cc1 [Compound 5e] | 142 | – | – | –
N=C(NCc1ccccc1)NC(=O)N1CCN(c2ccc(Cl)cc2)CC1 [Compound 5j] | 177 | very strong activity | very strong activity | IC50 (HSV-1): 72.1 µM
N=C(NC(=O)N1CCN(C23CC4CC(CC(C4)C2)C3)CC1)Nc1ccc(Cl)cc1 [Compound 5k] | 86.7 | very strong activity | very strong activity | IC50 (HSV-1): 18.5 µM
N=C(NC(=O)N1CCOCC1)Nc1ccc(Cl)cc1 [Compound 5d] | 1560 | more pronounced against HSV-1 | – | –
CC(NC(=O)NC(=N)Nc1ccc(Cl)cc1)c1ccccc1 (stereo not drawn) [Compound 5b] | 196 | – | – | –
N=C(N)/N=C(\N)N1CCOCC1 [moroxydine, reference compound] | – | does not show any antiviral activity | does not show any antiviral activity | –
N=C(NC(=O)NCc1ccc(Cl)cc1)Nc1ccc(Cl)cc1 [Compound 5a] | 168 | – | – | –
N=C(NC(=O)N1CCNC(c2ccccc2)C1)Nc1ccc(Cl)cc1 (stereo not drawn) [Compound 5f] | 98.6 | – | – | –
N=C(NC(=O)N1CCN(c2ccccc2)CC1)Nc1ccc(Cl)cc1 [Compound 5i] | 149 | very strong activity | very strong activity | expression of viral proteins ICP27 and gD (HSV-1) (ICP27 and gD (HSV-1)): overall decrease of viral proteins; expression of viral proteins ICP8 and gD (HSV-2) (ICP8 and gD (HSV-2)): overall decrease of viral proteins
N=C(NCc1ccccc1)NC(=O)N1CCN(c2ccc(F)cc2)CC1 [Compound 5h] | 389 | – | – | –
N=C(NCc1ccccc1)NC(=O)N1CCN(c2ccccc2)CC1 [Compound 5g] | 246 | – | – | –
